Structures can show the parent of a compound that is named as a salt.
Legend:
[1] = tested on: healthy adult volunteer subjects; assay: Dose range study of reversal of local anesthesia after maxillary infiltration; format: in vivo, human
Procedure: Four groups of eight healthy adult volunteer subjects were given an infiltration of the lateral incisor using one 1.8 ml cartridge of lidocaine 2% with epinephrine 1:100,000. […] Subjects palpated their upper lip, nose, and teeth every five minutes for the next five hours after injections.

[2] = Narrow-range pH-stability profiling at 60° C. (HPLC); format: physicochemical; details: 50 mM sodium phosphate, zero-order rate constant vs pH
Procedure: (§1) The drug is monitored at a detection wavelength of 232 nm.
All samples were stored in the dark. […] All samples were analyzed without dilution.
The phosphate buffers were prepared as previously described. […] Measurement of sample pH was done after HPLC analysis.
In order to precisely define the most favorable pH, a stronger stressing condition was needed to generate a greater extent of degradation in the lower pH region. For this study, the incubation condition was shifted from 40° C. to 60° C. […] Since the extent of degradation after fourteen (14) days was still less than twenty percent (20%) in most samples, zero-order rate kinetics was used for the degradation curves (concentration versus time). The calculated rate constant was plotted against pH to provide the narrow-range pH-stability profile.

[3] = Effect of buffer anion on stability at 60° C. (HPLC); format: physicochemical
Procedure: as §1
Tightly sealed glass vials containing the test solutions were placed in an oven at 40° C. or 60° C. All samples were stored in the dark. Aliquots were removed at designated time points for HPLC analysis and pH measurement. All samples were analyzed without dilution.
The test buffers included 50 mM sodium phosphate, 50 mM sodium acetate, 50 mM sodium lactate, 50 mM sodium citrate, and 50 mM sodium succinate buffers at pH 3.
The phosphate and acetate buffers were prepared as described above. The citrate buffer was prepared by adding 9.60 g of citric acid to water, adjusting the pH with 2 N NaOH to pH 3, and bringing the volume to 1 L in a volumetric flask. The lactate buffer was prepared by adding 2.25 g of lactic acid to water, adjusting the pH with 2 N NaOH to pH 3, and bringing the volume to 1 L in a volumetric flask. The succinate buffer was prepared by adding 2.95 g succinic acid to water, adjusting the pH with 2 N NaOH to pH 3, and bringing the volume to 1 L in a volumetric flask.
Measurements of sample pH were done after HPLC analysis.

healthy adult volunteers = assay: Reversal of soft-tissue anesthesia after inferior alveolar nerve block, proof-of-principle trial; format: in vivo, human; details: 0.2 mg in 1.8 ml
Procedure: The objective of this proof-of-principle trial was to evaluate the feasibility of reversing soft-tissue anesthesia by pharmacologically blocking the effects of epinephrine. […] Subjects self-evaluated the return of normal sensation in their lip, chin, tongue, nose, and teeth by palpations at 5-minute intervals starting at 5 minutes before the study drug injection and continuing for approximately 4–5 hours. To avoid biased responding, subjects were told that they could not leave the clinic for 8 hours after the last injection. Responses for soft tissues were categorized as (1) numb (no feeling), (2) feeling of pins and needles, or (3) normal sensation. Responses for teeth were (1) numb (no feeling) or (2) normal sensation. Safety was evaluated through reports of adverse events, measurement of vital signs and two-lead electrocardiograms before, during, and after the injections of anesthetic and study drug, and through pain assessments using visual analog scales.

[4] = tested on: healthy adult volunteer subjects; assay: Dose range study of reversal of local anesthesia after mandibular nerve block; format: in vivo, human
Text: The objectives of this study were to evaluate the safety and efficacy of a range of doses of phentolamine in reversing local anesthesia after a mandibular nerve block. […] Subjects palpated their lower lip, chin, tongue, and teeth every five minutes for the next five hours after injections.

[5] = 50 mM sodium Acetate pH 3.0, 60° C., Day 0
[6] = 50 mM sodium Acetate pH 3.0, 60° C., Day 2
[7] = 50 mM sodium Acetate pH 3.0, 60° C., Day 7
[8] = 50 mM sodium Acetate pH 3.0, 60° C., Day 14
[9] = 50 mM sodium Citrate pH 3.0, 60° C., Day 0
[10] = 50 mM sodium Citrate pH 3.0, 60° C., Day 2
[11] = 50 mM sodium Citrate pH 3.0, 60° C., Day 7
[12] = 50 mM sodium Citrate pH 3.0, 60° C., Day 14
[13] = 50 mM sodium Lactate pH 3.0, 60° C., Day 0
[14] = 50 mM sodium Lactate pH 3.0, 60° C., Day 2
[15] = 50 mM sodium Lactate pH 3.0, 60° C., Day 7
[16] = 50 mM sodium Lactate pH 3.0, 60° C., Day 14
[17] = 50 mM sodium Phosphate pH 3.0, 60° C., Day 0
[18] = 50 mM sodium Phosphate pH 3.0, 60° C., Day 2
[19] = 50 mM sodium Phosphate pH 3.0, 60° C., Day 7
[20] = 50 mM sodium Phosphate pH 3.0, 60° C., Day 14
[21] = 50 mM sodium Succinate pH 3.0, 60° C., Day 0
[22] = 50 mM sodium Succinate pH 3.0, 60° C., Day 2
[23] = 50 mM sodium Succinate pH 3.0, 60° C., Day 7
[24] = 50 mM sodium Succinate pH 3.0, 60° C., Day 14

Cc1ccc(N(CC2=NCCN2)c2cccc(O)c2)cc1 [Phentolamine Mesylate, phentolamine mesylate]
electrocardiogram ([1]; 0.02 mg, 0.08 mg, 0.4 mg in 1.8 ml): no abnormalities | Adverse events ([1]; 0.02 mg, 0.08 mg, 0.4 mg in 1.8 ml, vs placebo): few and no differences were noted between the active and placebo groups | duration of anesthesia ([1]; all doses tested (0.02 mg, 0.08 mg, 0.4 mg in 1.8 ml), 40 minutes after lidocaine 2% with epinephrine 1:100,000, vs saline, each measured tissue): significantly (p<0.01) reduced | pH at which most stable [2]: 3.5 | Phentolamine Concentration [3, 5]: 96 µg/mL | Phentolamine Purity [3, 5]: 100 % peak area | Phentolamine Concentration [3, 6]: 95 µg/mL | Phentolamine Purity [3, 6]: 98 % peak area | Phentolamine Concentration [3, 7]: 94 µg/mL | Phentolamine Purity [3, 7]: 97 % peak area | Phentolamine Concentration [3, 8]: 89 µg/mL | Phentolamine Purity [3, 8]: 96 % peak area | Phentolamine Concentration [3, 9]: 93 µg/mL | Phentolamine Purity [3, 9]: 97 % peak area | Phentolamine Concentration [3, 10]: 87 µg/mL | Phentolamine Purity [3, 10]: 91 % peak area | Phentolamine Concentration [3, 11]: 73 µg/mL | Phentolamine Purity [3, 11]: 77 % peak area | Phentolamine Concentration [3, 12]: 62 µg/mL | Phentolamine Purity [3, 12]: 69 % peak area | Phentolamine Concentration [3, 13]: 97 µg/mL | Phentolamine Purity [3, 13]: 99 % peak area | Phentolamine Concentration [3, 14]: 94 µg/mL | Phentolamine Purity [3, 14]: 98 % peak area | Phentolamine Concentration [3, 15]: 91 µg/mL | Phentolamine Purity [3, 15]: 94 % peak area | Phentolamine Concentration [3, 16]: 83 µg/mL | Phentolamine Purity [3, 16]: 89 % peak area | Phentolamine Concentration [3, 17]: 96 µg/mL | Phentolamine Purity [3, 17]: 99 % peak area | Phentolamine Concentration [3, 18]: 93 µg/mL | Phentolamine Purity [3, 18]: 97 % peak area | Phentolamine Concentration [3, 19]: 91 µg/mL | Phentolamine Purity [3, 19]: 95 % peak area | Phentolamine Concentration [3, 20]: 84 µg/mL | Phentolamine Purity [3, 20]: 91 % peak area | Phentolamine Concentration [3, 21]: 96 µg/mL | Phentolamine Purity [3, 21]: 99 % peak area | Phentolamine Concentration [3, 22]: 88 µg/mL | Phentolamine Purity [3, 22]: 92 % peak area | Phentolamine Concentration [3, 23]: 74 µg/mL | Phentolamine Purity [3, 23]: 78 % peak area | Phentolamine Concentration [3, 24]: 64 µg/mL | Phentolamine Purity [3, 24]: 74 % peak area | rank of buffer preference based on the amount of phentolamine recovered at the end of the study ([3]; pH 3, 60° C., 14 days): sodium acetate>no buffer (water with pH adjusted to pH 3)>sodium phosphate>sodium lactate>sodium succinate>sodium citrate | electrocardiogram (healthy adult volunteers): no abnormalities | duration of anesthesia (healthy adult volunteers; 60 minutes after 2% lidocaine with 1:100,000 epinephrine, vs saline, each tissue): significantly (p<0.01) reduced | Adverse effects (healthy adult volunteers; vs placebo): few and no differences were noted between the active and placebo groups | electrocardiogram ([4]; 0.02 mg, 0.06 mg, 0.4 mg in 1.8 ml): no abnormalities | Adverse events ([4]; 0.02 mg, 0.06 mg, 0.4 mg in 1.8 ml, vs placebo): few and no differences were noted between the active and placebo groups | duration of anesthesia ([4]; all doses tested (0.02 mg, 0.06 mg, 0.4 mg in 1.8 ml), 60 minutes after lidocaine 2% with epinephrine 1:100,000, vs saline, each measured tissue): significantly (p<0.05) reduced

Reference: patent publication US7229630B2, “Stabilized formulations of alpha adrenergic receptor antagonists and the uses thereof” (Novalar Pharmaceuticals, Inc., priority 2002, dated 2007)
